According to patent US7659277B2, “Ubiquitin ligase inhibitors and methods related thereto” (Proteologies, Ltd., priority 2003, dated 2010):
Read-outs that look alike come from different tables or passages of the source.

Key:
c-cbl = c-cbl (Homo sapiens, UniProt P22681); assay: Selectivity (% A in 1 μM), ubiquitin ligase activity of c-cbl; type: biochemical; conditions: % activity at 1 μM compound; control is related to 100% activity; HTS protocol
POSH = target: T1, POSH (Homo sapiens, UniProt Q7Z6J0); assay: Selectivity (% A in 1 μM), ubiquitin ligase activity of POSH; type: biochemical; conditions: read-out: Selectivity (% A* in 1 μM) POSH
T1 construct: GST-POSH lot NB81/p.118 3.6 mg/ml; fused on or other part: GST tag, used for detection with anti-GST XL665
T1 sequence (Q7Z6J0 1-269 limits assumed): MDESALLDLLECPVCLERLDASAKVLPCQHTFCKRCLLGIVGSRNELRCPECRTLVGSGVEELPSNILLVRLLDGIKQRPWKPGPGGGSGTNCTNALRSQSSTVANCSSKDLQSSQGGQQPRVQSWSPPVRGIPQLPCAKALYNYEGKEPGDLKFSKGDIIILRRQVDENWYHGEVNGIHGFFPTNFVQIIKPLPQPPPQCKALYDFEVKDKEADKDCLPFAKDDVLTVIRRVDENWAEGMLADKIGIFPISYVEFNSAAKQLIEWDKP
Summary of the method: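 GST-POSH at 33 nM was preincubated 30 min at RT with compounds (1 mM stocks in DMSO, 5 μl into 100 μl) before addition to the E1/E2 enzyme mix. Dose-response runs used 44 nM to 4.44 μM compound in triplicate, with DMSO-only and no-E3 controls.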

Hmdm2 = Hmdm2 (Homo sapiens, UniProt Q00987); assay: Selectivity (% A in 1 μM), ubiquitin ligase activity of Hmdm2; type: biochemical; conditions: read-out: Selectivity (% A* in 1 μM) Hmdm2
E2 protein = type: biochemical; conditions: % activity at 1 μM compound; control is related to 100% activity; HTS protocol
HIV-1 = assay: HIV maturation (budding) in virus-like particle assay, HIV-1 p24 antigen ELISA; type: cell-based; conditions: Human immunodeficiency virus 1, read-out: Budding (3 μM)
Excerpt: Compounds were further assessed for effects on maturation of HIV particles in a virus-like particle assay.

[1] = % activity at 1 μM compound, control is related to 100% activity, HTS protocol

Hmdm2, sequence (Q00987 whole entry): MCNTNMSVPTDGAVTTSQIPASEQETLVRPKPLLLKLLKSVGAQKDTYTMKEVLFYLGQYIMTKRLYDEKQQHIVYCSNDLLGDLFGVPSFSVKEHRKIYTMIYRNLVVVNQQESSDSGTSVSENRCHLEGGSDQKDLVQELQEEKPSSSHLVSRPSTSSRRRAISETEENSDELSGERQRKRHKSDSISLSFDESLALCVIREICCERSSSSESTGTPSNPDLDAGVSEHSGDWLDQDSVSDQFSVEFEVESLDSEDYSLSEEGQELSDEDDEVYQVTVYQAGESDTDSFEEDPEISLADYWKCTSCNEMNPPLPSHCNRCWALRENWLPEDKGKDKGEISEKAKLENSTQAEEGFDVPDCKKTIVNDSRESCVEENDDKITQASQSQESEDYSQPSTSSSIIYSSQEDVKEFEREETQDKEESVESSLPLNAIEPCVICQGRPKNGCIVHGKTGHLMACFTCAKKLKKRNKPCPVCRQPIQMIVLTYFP

`COC(=O)C1=C(C(=O)OC)SC(=C2C(=S)C(C)(C)N(C(C)=O)c3cc(C)ccc32)S1` [Compound 99] showed a remaining activity at 1 µM (c-cbl) of 88%, a remaining activity at 1 µM (POSH; [1]) of 36% and a remaining activity at 1 µM (Hmdm2; [1]) of 101%. The “Selectivity (% A* in 1 μM) E2” value (E2 protein) was 89%.
`O=C1c2ccccc2-c2nc3nonc3nc21` [Compound 91] showed a remaining activity at 1 µM (POSH) of 11%, an activity at 3 µM (HIV-1) of 33% and a remaining activity at 1 µM (Hmdm2) of 62%.
`O=C(/C=C/c1cccnc1)c1ccc(C(=O)/C=C/c2cccnc2)cc1` [Compound 92] was tested, and the remaining activity at 1 µM (c-cbl) was 111%, the remaining activity at 1 µM (POSH; [1]) was 21% and the remaining activity at 1 µM (Hmdm2; [1]) was 105%. For the same compound, the “Selectivity (% A* in 1 μM) E2” value (E2 protein) was 125%.
For `O=c1oc2ccccc2c(O)c1C(=S)Nc1ccccc1` [Compound 96], the remaining activity at 1 µM (POSH) was 105%, the activity at 3 µM (HIV-1) was 56% and the remaining activity at 1 µM (Hmdm2) was 90%.
`O=C(Nc1cccc2c(NC(=O)C3C4CCCCC43)cccc12)C1C2CCCCC21` (stereo not shown) [Compound 97] was tested, and the remaining activity at 1 µM (POSH) was 13%, the activity at 3 µM (HIV-1) was 64% and the remaining activity at 1 µM (Hmdm2) was 123%.
Compound `Cc1cc(O)c(C(=O)/C=C/c2cccc(I)c2)c(=O)o1` [Compound 87] has a remaining activity at 1 µM (POSH) of 33%, an activity at 3 µM (HIV-1) of 29% and a remaining activity at 1 µM (Hmdm2) of 119%.
`O=C1NC(=O)N(c2ccccc2)C(=O)/C1=C\c1ccc2c(c1)OCO2` [Compound 4] gave a remaining activity at 1 µM (POSH; [1]) of 48% and a remaining activity at 1 µM (Hmdm2; [1]) of 105%.
For `CN(C)c1ccc(/C=C2/C(=O)NC(=O)N(C3CCCCC3)C2=O)cc1` [Compound 3], the remaining activity at 1 µM (POSH; [1]) was 47% and the remaining activity at 1 µM (Hmdm2; [1]) was 102%.
`COc1ccc(Nc2ccc(O)c3c2C(=O)c2ccccc2C3=O)cc1` [Compound 100] was tested, and the remaining activity at 1 µM (c-cbl) was 100%, the remaining activity at 1 µM (POSH; [1]) was 99% and the remaining activity at 1 µM (Hmdm2; [1]) was 75%. For the same compound, the “Selectivity (% A* in 1 μM) E2” value (E2 protein) was 59%.
`O=C(O)COc1ccc2c(c1)oc(=O)c1ccccc12` [Compound 85] gave a remaining activity at 1 µM (POSH) of 26%, an activity at 3 µM (HIV-1) of 59% and a remaining activity at 1 µM (Hmdm2) of 94%.
`COc1cc(C2Nc3ccccc3NC3=C2C(=O)CC(C)(C)C3)cc(Br)c1O` (stereo not shown) [Compound 102] was tested, and the remaining activity at 1 µM (c-cbl) was 111%, the remaining activity at 1 µM (POSH; [1]) was 52% and the remaining activity at 1 µM (Hmdm2; [1]) was 97%. For the same compound, the “Selectivity (% A* in 1 μM) E2” value (E2 protein) was 99%.
`Cc1ccc(C(=O)NN=C2CCC(=NNC(=O)c3ccc(C)cc3)CC2)cc1` [Compound 93] was tested, and the remaining activity at 1 µM (c-cbl) was 84%, the remaining activity at 1 µM (POSH; [1]) was 21% and the remaining activity at 1 µM (Hmdm2; [1]) was 106%. For the same compound, the “Selectivity (% A* in 1 μM) E2” value (E2 protein) was 78%.
In the case of `O=C(NCc1ccc(Cl)cc1)C(=O)Nc1ccccc1` [Compound 104], the remaining activity at 1 µM (c-cbl) is reported as 140%, the remaining activity at 1 µM (POSH; [1]) is reported as 111% and the remaining activity at 1 µM (Hmdm2; [1]) is reported as 145%. For the same compound, the “Selectivity (% A* in 1 μM) E2” value (E2 protein) was 113%.
For `COc1ccc(C(=O)CC2=C(O)C(=O)c3ccccc3C2=O)cc1` [Compound 89], the remaining activity at 1 µM (c-cbl) was 109%, the remaining activity at 1 µM (POSH; [1]) was 45% and the remaining activity at 1 µM (Hmdm2; [1]) was 79%. The “Selectivity (% A* in 1 μM) E2” value (E2 protein) was 70%.
Compound `Cc1cc(OC(=O)Cn2c(=O)sc3ccccc32)ccc1Cl` [Compound 103] has a remaining activity at 1 µM (POSH) of 102%, an activity at 3 µM (HIV-1) of 69% and a remaining activity at 1 µM (Hmdm2) of 100%.
`Cc1[nH]c(=O)c(C(=O)/C=C/c2ccccc2F)c2c1CCCC2` [Compound 95] showed a remaining activity at 1 µM (c-cbl) of 136%, a remaining activity at 1 µM (POSH; [1]) of 12% and a remaining activity at 1 µM (Hmdm2; [1]) of 98%. The “Selectivity (% A* in 1 μM) E2” value (E2 protein) was 100%.
`O=C(Cc1ccccc1)N1N=CCC1(O)c1ccc(F)cc1` (stereo not shown) [Compound 94] was tested, and the remaining activity at 1 µM (c-cbl) was 106%, the remaining activity at 1 µM (POSH; [1]) was 71% and the remaining activity at 1 µM (Hmdm2; [1]) was 103%. The “Selectivity (% A* in 1 μM) E2” value (E2 protein) was 49%.
`O=C(NC(C(Cl)(Cl)Cl)S(=O)(=O)c1ccccc1)c1ccc(Cl)cc1Cl` (stereo not shown) [Compound 88] gave a remaining activity at 1 µM (POSH) of 172%, an activity at 3 µM (HIV-1) of 57% and a remaining activity at 1 µM (Hmdm2) of 118%.
